For assay [1], the system named is HCT-116. Description: Cytotoxicity against human HCT-116 cells assessed as cell viability incubated for 24 hrs by MTT assay. In kind it is functional, cell-based. As to conditions: HCT-116, 24 h.
For assay [2], the target named is T1, Histone deacetylase 1 (Homo sapiens, UniProt Q13547). Description: Inhibition of HDAC1 (unknown origin) at 10 uM using fluorogenic peptide as substrate pre-incubated for 15 mins followed by substrate addition incubated for 30 mins by fluorescence assay relative to control. The settings on record: time 45.0 min.
T1 sequence (Q13547 whole entry): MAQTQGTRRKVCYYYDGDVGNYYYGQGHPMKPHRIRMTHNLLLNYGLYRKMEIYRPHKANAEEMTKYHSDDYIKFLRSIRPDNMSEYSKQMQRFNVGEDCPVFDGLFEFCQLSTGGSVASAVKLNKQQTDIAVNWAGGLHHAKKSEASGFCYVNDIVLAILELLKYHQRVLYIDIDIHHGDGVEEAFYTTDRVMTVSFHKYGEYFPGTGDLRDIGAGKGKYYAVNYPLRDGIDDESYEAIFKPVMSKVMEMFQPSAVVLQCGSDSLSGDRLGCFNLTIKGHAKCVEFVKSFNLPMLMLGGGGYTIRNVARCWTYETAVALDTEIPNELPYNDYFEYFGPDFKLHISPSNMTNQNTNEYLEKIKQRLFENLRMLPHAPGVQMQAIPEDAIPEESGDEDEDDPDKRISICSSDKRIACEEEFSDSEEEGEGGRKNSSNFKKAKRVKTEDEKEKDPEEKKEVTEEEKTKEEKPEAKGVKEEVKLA
Assay [3] concerns U-937. Description: Cytotoxicity against human U-937 cells assessed as cell death at 1 to 5 uM incubated for 24 hrs by PI staining based FACS analysis relative to control. In kind it is functional. As to conditions: dose 1-5 µM.
The test system of assay [4] is HCT-116. Description: Induction of cell cycle arrest in human HCT-116 assessed as decrease accumulation of cells in G1 phase at 1 to 5 uM incubated for 24 hrs by FACS analysis. In kind it is functional, cell-based. The settings on record: dose 1-5 µM.
For assay [5], the system named is U-937. Description: Induction of cell cycle arrest in human U-937 assessed as decrease accumulation of cells in G1 phase at 1 to 5 uM incubated for 24 hrs by FACS analysis. In kind it is functional, cell-based. As to conditions: dose 1-5 µM. (In general: Flow cytometry measures light scatter and fluorescence of single cells or particles in a stream.)
Assay [6] relates to HCT-116. Description: Induction of cell cycle arrest in human HCT-116 assessed as accumulation of cells in G2/M phase at 1 to 5 uM incubated for 24 hrs by FACS analysis relative to SAHA. As to conditions: dose 1-5 µM. In kind it is functional.
For assay [7], the target named is T2, Histone deacetylase (Homo sapiens) (UniProt Q13547+O15379+Q9UBN7+Q92769+Q9UQL6+Q8WUI4+Q9BY41+Q96DB2+P56524+Q9UKV0+Q969S8). Description: Inhibition of HDAC in human U-937 cells assessed as upregulation of acetyl alpha-tubulin level at 5 uM incubated for 24 hrs by immunoblotting analysis. In kind it is cell-based. (In general: In western blotting, separated proteins are transferred to a membrane and probed.)

Assay [8] relates to HCT-116. Description: Induction of cell cycle arrest in human HCT-116 assessed as decrease accumulation of cells in S phase at 1 to 5 uM incubated for 24 hrs by FACS analysis. In kind it is functional, cell-based. As to conditions: dose 1-5 µM.
Assay [9] has as its target T2, Histone deacetylase (Homo sapiens). Description: Inhibition of HDAC in human U-937 cells assessed as upregulation of histone H3 acetylation at lysine 14 residue at 5 uM incubated for 24 hrs by immunoblotting analysis. In kind it is cell-based.
Assay [10] deals with T3, Protein deacetylase HDAC6 (Homo sapiens, UniProt Q9UBN7).
T3 sequence (Q9UBN7 whole entry): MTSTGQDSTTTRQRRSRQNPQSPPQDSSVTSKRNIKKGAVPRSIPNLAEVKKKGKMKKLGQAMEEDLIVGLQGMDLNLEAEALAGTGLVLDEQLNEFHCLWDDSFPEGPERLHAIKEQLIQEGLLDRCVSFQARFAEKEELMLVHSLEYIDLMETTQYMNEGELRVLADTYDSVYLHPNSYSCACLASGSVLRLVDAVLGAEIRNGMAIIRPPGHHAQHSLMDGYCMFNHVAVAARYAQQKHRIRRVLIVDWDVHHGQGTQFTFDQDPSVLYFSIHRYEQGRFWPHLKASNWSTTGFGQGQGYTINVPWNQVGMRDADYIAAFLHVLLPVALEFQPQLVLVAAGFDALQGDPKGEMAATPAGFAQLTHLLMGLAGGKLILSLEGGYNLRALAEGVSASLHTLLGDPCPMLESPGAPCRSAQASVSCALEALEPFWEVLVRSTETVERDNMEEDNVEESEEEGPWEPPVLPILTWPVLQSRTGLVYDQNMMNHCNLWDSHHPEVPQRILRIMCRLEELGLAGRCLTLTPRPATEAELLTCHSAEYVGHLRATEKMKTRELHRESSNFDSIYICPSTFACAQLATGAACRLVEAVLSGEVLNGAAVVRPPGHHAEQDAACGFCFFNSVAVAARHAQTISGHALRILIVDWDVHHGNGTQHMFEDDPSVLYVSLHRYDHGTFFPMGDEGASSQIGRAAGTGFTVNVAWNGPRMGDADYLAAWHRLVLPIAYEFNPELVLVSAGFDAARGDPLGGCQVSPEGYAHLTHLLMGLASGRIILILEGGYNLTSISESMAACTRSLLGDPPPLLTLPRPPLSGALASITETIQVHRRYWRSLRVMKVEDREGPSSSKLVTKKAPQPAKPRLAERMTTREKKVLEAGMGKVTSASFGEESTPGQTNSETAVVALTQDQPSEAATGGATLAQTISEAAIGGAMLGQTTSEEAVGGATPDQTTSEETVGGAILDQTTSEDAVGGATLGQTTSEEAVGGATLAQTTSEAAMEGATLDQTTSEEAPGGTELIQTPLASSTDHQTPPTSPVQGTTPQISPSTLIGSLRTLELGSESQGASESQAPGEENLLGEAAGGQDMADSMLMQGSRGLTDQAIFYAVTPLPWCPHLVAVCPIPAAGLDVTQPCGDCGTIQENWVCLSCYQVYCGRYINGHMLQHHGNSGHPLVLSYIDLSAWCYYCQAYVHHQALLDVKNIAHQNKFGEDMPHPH
Description: Inhibition of HDAC6 (unknown origin) using fluorogenic peptide as the substrate containing residues 379-382 of p53at 10 uM pre-incubated for 15 mins followed by substrate addition incubated for 30 mins by multimode plate reader.

Assay [11] concerns the target Histone deacetylase. In kind it is subcellular, Homo sapiens, Nucleus. As to conditions: hela.
Description: Inhibition of HDAC in human HeLa cell nuclear extract using Kac fluorogenic peptide as substrate containing residues 379-382 of p53 by fluorescence assay
The target of assay [12] is T2, Histone deacetylase (Homo sapiens). Description: Inhibition of HDAC in human U-937 cells assessed as upregulation of histone H3 acetylation at lysine 14 residue at 1 uM incubated for 24 hrs by immunoblotting analysis. In kind it is cell-based.
Assay [13] deals with HCT-116. Description: Induction of apoptosis in human HCT-116 cells assessed as increased p21 protein expression level at 1 to 5 uM incubated for 24 hrs by immunoblotting analysis. In kind it is functional, cell-based. The settings on record: dose 1-5 µM.
Assay [14] concerns U-937. Description: Induction of cell cycle arrest in human U-937 assessed as increase accumulation of cells in G2/M phase at 1 to 5 uM incubated for 24 hrs by FACS analysis. In kind it is functional, cell-based. The settings on record: dose 1-5 µM.
For assay [15], the target named is T2, Histone deacetylase (Homo sapiens). Description: Inhibition of HDAC in human HCT-116 cells assessed as upregulation of acetyl alpha-tubulin level at 1 to 5 uM incubated for 24 hrs by immunoblotting analysis. In kind it is cell-based. As to conditions: dose 1-5 µM.
Assay [16] has as its system U-937. Description: Induction of cell cycle arrest in human U-937 assessed as decrease accumulation of cells in S phase at 1 to 5 uM incubated for 24 hrs by FACS analysis. In kind it is functional, cell-based. The settings on record: dose 1-5 µM.
Assay [17] addresses T1, Histone deacetylase 1. Description: Inhibition of HDAC1 (unknown origin) using fluorogenic peptide as the substrate containing residues 379-382 of p53 pre-incubated for 15 mins followed by substrate addition incubated for 30 mins by multimode plate reader.
The subject of assay [18] is U-937. Description: Cytotoxicity against human U-937 cells assessed as cell viability incubated for 24 hrs by MTT assay. In kind it is functional, cell-based. As to conditions: U-937, 24 h. (Tetrazolium dyes change colour on reduction, which living cells bring about.)
For assay [19], the target named is T4, Protein deacetylase HDAC6 (Homo sapiens) (UniProt Q9UBN7).
T4 sequence (whole entry): T3 sequence (Q9UBN7 whole entry)
Description: Inhibition of HDAC6 (unknown origin) at 10 uM using fluorogenic peptide as substrate pre-incubated for 15 mins followed by substrate addition incubated for 30 mins by fluorescence assay. As to conditions: time 45.0 min.

For assay [20], the system named is U-937. Description: Induction of apoptosis in human U-937 cells assessed as increased p21 protein expression level at 1 to 5 uM incubated for 24 hrs by immunoblotting analysis. In kind it is functional, cell-based. The settings on record: dose 1-5 µM.
The target of assay [21] is T2, Histone deacetylase (Homo sapiens). Description: Inhibition of HDAC in human HCT-116 cells assessed as upregulation of histone H3 acetylation at lysine 14 residue at 1 uM incubated for 24 hrs by immunoblotting analysis. In kind it is cell-based.
For assay [22], the target named is Histone deacetylase 2 (Homo sapiens) (UniProt Q92769). Description: Inhibition of HDAC2 (unknown origin) at 10 uM using fluorogenic peptide as substrate pre-incubated for 15 mins followed by substrate addition incubated for 30 mins by fluorescence assay. As to conditions: time 45.0 min.
Histone deacetylase 2 (Homo sapiens), sequence (Q92769 whole entry): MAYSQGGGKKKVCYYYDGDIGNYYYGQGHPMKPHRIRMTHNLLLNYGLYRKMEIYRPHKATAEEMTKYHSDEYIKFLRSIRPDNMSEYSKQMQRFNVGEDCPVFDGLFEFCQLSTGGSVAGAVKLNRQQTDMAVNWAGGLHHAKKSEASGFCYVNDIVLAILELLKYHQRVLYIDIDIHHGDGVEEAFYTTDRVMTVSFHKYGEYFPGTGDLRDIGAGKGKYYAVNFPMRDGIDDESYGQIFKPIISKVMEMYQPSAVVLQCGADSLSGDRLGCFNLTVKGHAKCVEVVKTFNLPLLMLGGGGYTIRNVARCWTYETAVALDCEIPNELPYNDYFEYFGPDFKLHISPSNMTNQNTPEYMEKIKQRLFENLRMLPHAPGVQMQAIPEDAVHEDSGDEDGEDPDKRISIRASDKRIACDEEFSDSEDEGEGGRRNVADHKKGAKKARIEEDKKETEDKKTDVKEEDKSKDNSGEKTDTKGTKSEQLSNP
For assay [23], the system named is U-937. Description: Induction of cell cycle arrest in human U-937 assessed as decrease accumulation of cells in G1 phase at 5 uM incubated for 24 hrs by FACS analysis. In kind it is functional, cell-based.
In assay [24] the target is Histone deacetylase 4 (Homo sapiens) (UniProt P56524). Description: Inhibition of HDAC4 (unknown origin) at 10 uM using fluorogenic peptide as substrate pre-incubated for 15 mins followed by substrate addition incubated for 30 mins by fluorescence assay. As to conditions: time 45.0 min.
Histone deacetylase 4 (Homo sapiens), sequence (P56524 whole entry): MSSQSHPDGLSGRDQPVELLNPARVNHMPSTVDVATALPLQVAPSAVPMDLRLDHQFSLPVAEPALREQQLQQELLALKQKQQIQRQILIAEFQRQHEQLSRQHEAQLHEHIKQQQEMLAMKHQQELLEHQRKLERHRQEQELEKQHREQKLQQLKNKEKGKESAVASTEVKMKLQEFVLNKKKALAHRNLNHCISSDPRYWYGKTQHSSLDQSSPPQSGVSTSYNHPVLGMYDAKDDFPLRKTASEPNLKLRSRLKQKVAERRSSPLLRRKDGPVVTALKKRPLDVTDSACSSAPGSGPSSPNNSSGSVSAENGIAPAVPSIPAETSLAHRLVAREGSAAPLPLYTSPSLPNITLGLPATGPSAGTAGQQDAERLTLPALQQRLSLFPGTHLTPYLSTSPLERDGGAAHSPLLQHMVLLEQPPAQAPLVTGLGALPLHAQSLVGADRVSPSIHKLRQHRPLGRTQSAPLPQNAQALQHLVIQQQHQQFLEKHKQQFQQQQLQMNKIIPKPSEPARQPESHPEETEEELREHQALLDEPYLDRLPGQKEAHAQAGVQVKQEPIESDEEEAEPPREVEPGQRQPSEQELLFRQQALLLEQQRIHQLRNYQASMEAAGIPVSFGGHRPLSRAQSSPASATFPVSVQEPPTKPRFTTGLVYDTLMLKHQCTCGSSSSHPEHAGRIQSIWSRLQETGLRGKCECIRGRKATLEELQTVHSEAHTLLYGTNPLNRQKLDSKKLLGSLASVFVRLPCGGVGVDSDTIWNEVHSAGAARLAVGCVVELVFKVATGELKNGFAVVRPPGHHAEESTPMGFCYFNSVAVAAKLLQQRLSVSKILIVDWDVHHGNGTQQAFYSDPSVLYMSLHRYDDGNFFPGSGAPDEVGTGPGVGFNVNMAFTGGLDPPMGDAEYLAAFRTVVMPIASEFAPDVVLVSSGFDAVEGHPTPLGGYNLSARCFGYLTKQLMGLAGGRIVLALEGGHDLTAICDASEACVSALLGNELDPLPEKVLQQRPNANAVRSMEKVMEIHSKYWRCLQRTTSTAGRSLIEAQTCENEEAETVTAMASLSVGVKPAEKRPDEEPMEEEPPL
In assay [25] the test system is U-937. Description: Cytotoxicity against human U-937 cells assessed as cell death at 5 uM incubated for 24 hrs by PI staining based FACS analysis relative to control. In kind it is functional.
Assay [26] has as its target Histone deacetylase 3 (Homo sapiens) (UniProt O15379). Description: Inhibition of HDAC3 (unknown origin) at 10 uM using fluorogenic peptide as substrate pre-incubated for 15 mins followed by substrate addition incubated for 30 mins by fluorescence assay. As to conditions: time 45.0 min.
For assay [27], the target named is T5, Histone deacetylase 8 (Homo sapiens) (UniProt Q9BY41).
T5 sequence (whole entry): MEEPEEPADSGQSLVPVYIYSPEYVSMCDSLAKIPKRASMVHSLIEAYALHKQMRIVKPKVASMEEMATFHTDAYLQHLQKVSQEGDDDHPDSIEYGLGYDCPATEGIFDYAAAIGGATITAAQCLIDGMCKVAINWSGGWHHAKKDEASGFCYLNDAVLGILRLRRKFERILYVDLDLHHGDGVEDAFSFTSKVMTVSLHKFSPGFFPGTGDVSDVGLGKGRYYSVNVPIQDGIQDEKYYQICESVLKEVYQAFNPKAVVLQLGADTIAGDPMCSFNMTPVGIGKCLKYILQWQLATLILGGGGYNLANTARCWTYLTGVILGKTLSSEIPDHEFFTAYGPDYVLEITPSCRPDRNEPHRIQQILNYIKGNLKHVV
Description: Inhibition of HDAC8 (unknown origin) at 10 uM using fluorogenic peptide as substrate pre-incubated for 15 mins followed by substrate addition incubated for 30 mins by fluorescence assay. The settings on record: time 45.0 min.

For assay [28], the system named is U-937. Description: Induction of cell cycle arrest in human U-937 assessed as reduced accumulation of cells in S phase at 1 uM incubated for 24 hrs by FACS analysis. In kind it is functional, cell-based.
The subject of assay [29] is U-937. Description: Cytotoxicity against human U-937 cells assessed as cell death at 1 uM incubated for 24 hrs by PI staining based FACS analysis relative to control. In kind it is functional.

The structures appear in SMILES notation. Active and inactive are the calls of the source. The rule behind the calls is not given here.

The term IC50 denotes the concentration that gives 50% inhibition. The term inhibition denotes how much of the control response was suppressed.

Histone deacetylase 3 (Homo sapiens), sequence (O15379 whole entry): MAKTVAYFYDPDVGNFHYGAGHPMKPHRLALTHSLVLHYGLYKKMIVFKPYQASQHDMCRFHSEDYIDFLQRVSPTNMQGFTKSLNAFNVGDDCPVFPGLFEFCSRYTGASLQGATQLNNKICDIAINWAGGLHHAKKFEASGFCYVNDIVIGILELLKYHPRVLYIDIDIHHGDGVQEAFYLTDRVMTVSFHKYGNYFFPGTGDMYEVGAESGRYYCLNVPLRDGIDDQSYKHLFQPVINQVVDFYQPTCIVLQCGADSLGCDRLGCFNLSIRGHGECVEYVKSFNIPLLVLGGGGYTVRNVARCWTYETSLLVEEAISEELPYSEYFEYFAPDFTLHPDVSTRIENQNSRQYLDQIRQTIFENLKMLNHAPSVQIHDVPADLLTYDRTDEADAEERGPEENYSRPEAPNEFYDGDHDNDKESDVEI

Consider `O=C(CCCCCN1C(=O)CC(c2ccc(Cl)c(Cl)c2)S(=O)(=O)c2ccccc21)NO` (racemic), for which the concentration for half-maximal inhibition (IC50) in assay [1] came to 18500 nM; in assay [10], 12.3 nM; in [11], 27.1 nM; in [17], 88.2 nM; in [18], 13900 nM. Further, the inhibition in assay [2] was determined as 96.9%; in assay [19], 99.5%. For the same molecule, the Activity in assay [3] is about 6%. The outcome in assay [4], in [5], in [6], in assay [7], in assay [8] and in assay [9] was Active. Besides, the result in assay [12], in assay [13], in [14], in assay [15], in [16] and in assay [20] was Active. The outcome in [21] was Active.

On to `O=C(CCCCCN1C(=O)CC(c2ccccc2)S(=O)(=O)c2ccccc21)NO` (racemic), for which the inhibition worked out at 99.1% in [2]; 100% in assay [22]; 51.4% in assay [24]; 99.3% in assay [26]; 87.3% in assay [27]; 98.8% in [19]. The outcome in assay [23], in assay [7], in [9], in [12], in assay [13] and in assay [14] was Active. In addition, the result in [15], in [28], in [20] and in assay [21] was Active. Besides, the Activity in assay [25] is listed as about 12%; in assay [6] it was about 75%; in [29] it was 12%. Besides, the half-inhibitory concentration (IC50) is 23.2 nM in assay [10], 38.6 nM in assay [11] and 115 nM in assay [17].

The record behind these values is ChEMBL document CHEMBL5365438, “2-Substituted 1,5-benzothiazepine-based HDAC inhibitors exert anticancer activities on human solid and acute myeloid leukemia cell lines” (Bioorg Med Chem, 2023).
